Data on six compounds can be found in patent EP4160211A1, “DETECTING THE EXPOSURE OF A SUBJECT TO A THYROID DISRUPTING CHEMICAL, EVEN BEFORE HYPOTHYROIDISM APPEARS” (Moreno Navarro, José Carlos, priority 2021, dated 2023).

Data set [1] has as its target T1, Dehal1 (Homo sapiens, UniProt Q6PHW0).
T1 construct: expressed in transfected cells; host or cells: HEK293
T1 sequence (Q6PHW0 1-289): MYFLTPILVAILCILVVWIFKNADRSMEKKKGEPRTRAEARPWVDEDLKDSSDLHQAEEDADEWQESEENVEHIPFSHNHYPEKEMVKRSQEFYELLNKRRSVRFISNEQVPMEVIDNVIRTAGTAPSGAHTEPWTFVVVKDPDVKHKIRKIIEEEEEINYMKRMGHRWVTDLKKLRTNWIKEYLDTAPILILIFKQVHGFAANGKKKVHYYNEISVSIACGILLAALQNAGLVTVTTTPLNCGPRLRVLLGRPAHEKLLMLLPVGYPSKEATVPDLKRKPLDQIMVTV
Kind of data set: In vitro Dehal1 inhibition assay (inhibition of 125I-MIT deiodination in homogenates of DEHAL1-transfected HEK293 cells). The data set is classed as biochemical. The protocol:
Human embryonic kidney (HEK293) cells were grown in Dulbecco's modified Eagle medium (Gibco) supplemented with 10% fetal calf serum and 0.1 mM flavin mononucleotide (FMN, MP Biochemicals) in 6-well plates. At 50% confluency, cells were transfected with 1 µg of wild-type or mutant DEHAL1 plasmid or empty pcDNA3.1 plasmid, using Fugene6 (Roche). After 24 h incubation, cells were washed with 1 ml PBS and collected in 0.5 ml PED buffer (0.1 M phosphate, pH 7.2, 2 mM EDTA, 1 mM dithiothreitol) per well and kept on ice. Samples were sonicated twice for 10 sec using Soniprep150, frozen on dry ice-ethanol and stored at -80 °C. For experiments testing FMN-response, culture medium was supplemented with 0-2 mM FMN.
The experiments follow described methods to determine the MIT deiodination capacity of Dehal1-transfected cells (8), adding the candidate chemicals to test their capacity to inhibit such reaction. Basically, labelled [^125I]MIT was prepared by radioiodination of L-tyrosine (Sigma-Aldrich) with ^125I - (specific activity: 15 Ci/mg, Amersham Biosciences) using the chloramine-T method and purified by chromatography on cation-exchange resin (Dowex 50WX2-200, Sigma-Aldrich). […] Incubations contained […] [^125I]MIT, 0.1 µM unlabeled MIT and 10-25 µg cell homogenate protein in a final volume of 0.1 ml PED buffer. Reactions were started by the addition of NADPH (final concentration 0.1 mM), and the mixtures were incubated for 60 min at 37°C. Reactions were stopped by the addition of 0.9 ml of 10% acetic acid on ice. Samples were applied to 2 ml Dowex 50WX2-200 columns, and successively eluted with 3x1 ml 10% acetic acid (containing eluted iodide), 1 ml water, and 4×1ml 1 M NH4OH (containing iodotyrosines). Radioactivity was measured in each fraction in a NE1600 gamma counter (NE Technologies) and percentage deiodination was calculated. Protein concentrations in cell homogenates were measured by Bradford's assay; iodotyrosine deiodinase activity was corrected for the slight 1251 - production in empty pcDNA3.1-transfected cell homogenates and expressed per mg protein.
For the general screen of inhibition potential of each compound, 10 µM unlabeled chemicals tested (Sigma-Aldrich) were added to the incubation mixture together with […] unlabeled MIT with no further modifications on the protocol above. Said chemical tested were: Tetrabromobisphenol A (TBBPA), Bisphenol A (BPA), Pentachlorophenol (PCP), tetraiodophenol (TIP), Tetrabromophenol (TBP), tetrachlorophenol (TCP), tetraafluorophenol (TFP), Di-iodo-nitro-Pheol (DINP), Di-chloro-nitrophenol (DCNP), Dibromophenol (DBP), Diclorophenol (DCP), iodophenol (IP), Bromophenol (BP), Fluorophenol (FP), phenol (P), Tyrosien(Tyr), mononitrotyrosine (MNT), monochlorotyrosine (MCT), Monoiodotyrosine (MIT), Diiodotyrosine (DIT). As negative controls: empty pcDNA-transfected cells, DMSO, NaOH and Buffer.
Crude deiodination capacity obtained in individual chemical-containing mixture was calculated, including the vehicle (DMSO)-containing mixture. Percentage inhibition of each compound was determined with respect to the vehicle containing mixture. For inhibition curves of particular compounds, equimolar concentrations of unlabeled MIT (0, 0.1, 1, 10, 100 µM) and BPA, TBBPA, PCP and MNT were used, and % inhibition of individual compounds was calculated as above.

In data set [2] the test system is thyroid hormone axis. As to the kind of experiment: In vivo administration to mice: hormonal and biochemical effects in plasma and urine. The settings on record: for UIC / UIC % variation: urine. As for the experimental part: Mice. Female wild type mice from C57BI/6 J strain were purchased from Charles River company. Animals were maintained under standard conditions of temperature (22-24°C), humidity (40-50%), 12-12 hours of dark/light cycle, water and rodent diet ad libitum. Five months old female mice were acclimatized prior to the experiment and handled based on animal bioethical protocols. The experimental procedures were approved by the Research Ethical Committee of the Autonomous University of Madrid and the competent department of Comunidad de Madrid. Tetrabromobisphenol A powder (TBBPA, 97% purity) obtained through Sigma-Aldrich was dissolved in a vehicle containing 25% ethanol and 75% of peanut oil. A TBBPA dose of 500 mg/kg of body weight was injected subcutaneously for 7 days. Blood and urine collection were performed at the end of the experiment (Fig. 1).
Blood, urine and tissue collection. At day 7, blood was collected from cardiac puncture in heparinized tubes and centrifuged (2000 g for 10 minutes) to isolate plasma. Urine was collected using hydrophobic sand (Coastline Global, USA). Samples were kept at -20°C until used. For tissue isolation, mice were kept under deep anesthesia (Sevorane) and euthanized by cervical dislocation.
Previously published methods were modified to allow the simultaneous quantification of MIT, DIT, T3, T4.
Sample preparation: 100 µL of urine/plasma were added with suitable amounts of stable isotope-labeled internal standards (5.4 pmol 13C9-MIT, 4.0 pmol 13C9-DIT, 2.8 pmol 13C6-T3, 2.4 pmol 13C6-T4), vortexed, stored 30 min at room temperature to equilibrate, and deproteinized with the addition of 300µL of cold-acetone and the storage at 4°C for 30 min. After centrifugation at 22780 × g for 10 min, supernatants were dried at 40 °C under a gentle stream of nitrogen, derivatized with 200 µL of 3.0 N hydrochloric acid in n-butanol and incubated for 45 min at 60 °C, for the formation of the corresponding butyl esters of tyrosines, thyroid hormones, and their internal standards. After further evaporation to dryness, the sample was reconstituted with 500 µL of 0,1 M potassium buffer (pH=4) and loaded onto Agilent (Santa Clara, CA, USA) Bond-Elut Certify 130 mg SPE cartridges, to perform the extraction according to the procedure described by Saba et al.. The eluate was dried once again under nitrogen, the dried residue was reconstituted with 100 µL of acetonitrile/0.1 M hydrochloric acid (50/50 by volume), and 1µL of it was injected into the HPLC-MS-MS system. Calibration curves ranged from 0.1 to 100.0 ng/mL and were daily prepared by serial dilution in methanol and derivatized with samples.
Instrument layout: AB-Sciex (Concord, Ontario, Canada) QTRAP 6500+ triple quadrupole mass spectrometer with ESI source, coupled to an Agilent (Santa Clara, CA, USA) 1290 UHPLC system, fitted with a 110 Å, 2x50 mm, 3µm particle size, Gemini C18 column (Phenomenex, Torrance, CA).
Operative conditions: the chromatographic separation was carried out at 400 µL/min as a flow rate, using methanol/acetonitrile (20/80, by volume) added with 0.1% formic acid (solvent A) and water containing 0.1% formic acid (solvent B). The elution gradient was the following: 95 % solvent B from 0 to 3 min; 35 % solvent B from 3 to 8.5 min; 0 % solvent B from 8.5 to 9 min; 0 % solvent B from 9 to 11 min; 95 % solvent B from 11 to 14 min (equilibration step). […] Three transitions were used to monitor each compound and internal standard: that one with the highest signal/noise ratio was used as a quantifier (Q), while the other two as qualifiers (q).

Where [3] appears, read: dose-response inhibition assay, 0-100 µM.
Where [4] appears, read: general screen, compound at 10 µM.
[5] abbreviates: MNT 1mg/Kg b.w./day, for 7 days.
The mark [6] stands for this setting: vs WT, MNT 1mg/Kg b.w./day, for 7 days.
The mark [7] stands for this setting: read-out: inhibition of Dehal1 activity.
Where [8] appears, read: TBBPA 500 mg/kg b.w/day subcutaneously for 7 days.
Where [9] appears, read: TBBPA 500 mg/kg b.w/day subcutaneously for 7 days, plasma.
[10] abbreviates: vs WT, TBBPA 500 mg/kg b.w/day for 7 days.
Where [11] appears, read: vs WT, TBBPA 500 mg/kg b.w/day for 7 days, plasma.

Where two headings read alike, the source gives them in different places.

Turning to `CC(C)(c1ccc(O)cc1)c1ccc(O)cc1` [BPA, Bisphenol A, reference compound], the inhibition capacity entry in data set [1] (setting [3]) was “no inhibition capacity”.
In the case of `N[C@@H](Cc1cc(I)c(O)c(I)c1)C(=O)O` [DIT, Diiodotyrosine, reference compound], the “inhibition of labeled-MIT deiodination” value in data set [1] (setting [4]) is “maximal inhibition”.
Turning to `N[C@@H](Cc1ccc(O)c(I)c1)C(=O)O` [MIT, Monoiodotyrosine, reference compound], the “inhibition of labeled-MIT deiodination” value in data set [1] (setting [4]) is “maximal inhibition”.
`N[C@@H](Cc1ccc(O)c([N+](=O)[O-])c1)C(=O)O` [MNT, 3-L-nitrotyrosine, reference compound]: the IC50 in data set [1] (setting [3]) was under 0.01 µM. For the same compound, in data set [1] (setting [4]), the “inhibition of labeled-MIT deiodination” value is “maximal inhibition”. In data set [2] (setting [5]), the DIT-urine was found to be 0.29 ± 0.06 ng/mL, the MIT-urine is 1.94 ± 0.13 ng/mL, the MIT/DIT urine was 6,69 and the T3 came to 0.27 ± 0.02 ng/mL. In data set [2] (setting [5]), this compound showed a T4 of 25.35 ± 1.2 ng/mL, a TSH of 1.07 ± 0.07 mU/L and a UIC of 198 ± 14.43 µg/L. Besides, in data set [2] (setting [6]), the DIT-urine % variation is given as -19%, the MIT-urine % variation entry is on record as “+46%”, the “MIT/DIT urine % variation” value is on record as “+80%” and the T3 % variation is recorded as -5%. Besides, in data set [2] (setting [6]), the T4 % variation entry is recorded as “+8%”, the TSH % variation result was “+7%” and the UIC % variation result is on record as “+47%”.
As to `Oc1c(Cl)c(Cl)c(Cl)c(Cl)c1Cl` [PCP, Pentachlorophenol], the IC50 in data set [1] (setting [3]) was about 25 µM. Moreover, the inhibition at 10 µM in data set [1] (setting [7]) is 22%; in data set [1] (read-out: inhibition of labeled-MIT deiodination), 55%. For the same compound, the inhibition at 100 µM in data set [1] (setting [7]) was 78%.
Regarding `CC(C)(c1cc(Br)c(O)c(Br)c1)c1cc(Br)c(O)c(Br)c1` [TBBPA, Tetrabromobisphenol A], in data set [1] (setting [3]), the IC50 was about 25 µM. Also, the inhibition at 10 µM in data set [1] (dose-response inhibition assay, 10 µM, read-out: inhibition of Dehal1 activity) was found to be 18%. The inhibition at 100 µM in data set [1] (dose-response inhibition assay, 100 µM, read-out: inhibition of Dehal1 activity) is 78%. The inhibition at 10 µM in data set [1] (general screen, compound at 10 µM, read-out: inhibition of labeled-MIT deiodination) stood at 37%. Besides, the T3 entry in data set [2] (TBBPA 500 mg/kg b.w/day for 7 days, plasma) was “remained unchanged”. In data set [2] (setting [8]), this compound had a DIT-plasma of 0.06 ± 0.01 ng/mL, a DIT-urine of 0.23 ± 0.04 ng/mL, an MIT-plasma of 0.21 ± 0.01 ng/mL and an MIT-urine of 2.53 ± 0.11 ng/mL. Also, in data set [2] (setting [8]), the MIT/DIT plasma was 3,5, the MIT/DIT urine is listed as 11 and the UIC came to 170.6 ± 13.9 µg/L. Further, in data set [2] (setting [9]), the T4 stood at 14.45 ± 1.65 ng/mL and the TSH is given as 1.3 ± 0.025 mU/L. Also, in data set [2] (setting [10]), the DIT-plasma % variation is recorded as -62%, the DIT-urine % variation was -36%, the MIT-urine % variation entry was “+73%” and the “MIT/DIT plasma % variation” value is “+250%”. Moreover, in data set [2] (setting [10]), the “MIT/DIT urine % variation” value was “+172%” and the UIC % variation entry is “+127%”. In data set [2] (setting [11]), the T4 % variation was -38% and the TSH % variation entry is listed as “+23%”.
